Species on record: Rattus norvegicus
Assay: Open TG-GATES - Regimen: Single
Format: toxicity, organism-based, Sprague-Dawley
Parameters: regimen Single, gender Male, age 6 weeks
Details: in vivo, po, 0 mg/kg, route gavage, dose level Control; for APTT / Bas / Eos / Fbg / Hb / Ht / Lym / MCH / MCHC / MCV / Mono / Neu / PT / Plat / RBC / Ret / WBC: tissue Blood; for ALP / ALT / AST / BUN / CRE / DBIL / GLC / IP / K / Na / PL / RALB / TBIL / TC / TG / TP / gamma-GTP: tissue Plasma

## NS(=O)(=O)c1cc(C(=O)O)c(NCc2ccco2)cc1Cl [FUROSEMIDE]
3 h
  TERMINAL_BW: 205.5 g
  APTT: 15.8 s
  Bas: 0%
  Eos: 0.8%
  Fbg: 270 mg/dL
  Hb: 13.2 g/dL
  Ht: 39.9%
  Lym: 78.2%
  MCH: 21.5 pg
  MCHC: 33.2%
  MCV: 64.8 fL
  Mono: 2.8%
  Neu: 17.2%
  PT: 15.6 s
  Plat: 115.8 x10_4/uL
  RBC: 615.6 x10_4/ul
  Ret: 7.3%
  WBC: 70.5 x10_2/uL
  ALP: 1448.8 IU/L
  ALT: 40.4 IU/L
  AST: 76.2 IU/L
  BUN: 10.2 mg/dL
  CRE: 0.2 mg/dL
  DBIL: 0.01 mg/dL
  GLC: 172.8 mg/dL
  IP: 9 mg/dL
  K: 4 meq/L
  Na: 142.4 meq/L
  PL: 137.6 mg/dL
  RALB: 2.5 g/dL
  TBIL: 0.058 mg/dL
  TC: 72.2 mg/dL
  TG: 61.6 mg/dL
  TP: 5.4 g/dL
  gamma-GTP: 0.6 IU/L
6 h
  TERMINAL_BW: 207.5 g
  APTT: 16.5 s
  Bas: 0%
  Eos: 1.2%
  Fbg: 313.6 mg/dL
  Hb: 13.1 g/dL
  Ht: 39.4%
  Lym: 75.8%
  MCH: 21.2 pg
  MCHC: 33.1%
  MCV: 63.9 fL
  Mono: 2.8%
  Neu: 19.4%
  PT: 15.3 s
  Plat: 122.5 x10_4/uL
  RBC: 617.2 x10_4/ul
  Ret: 8%
  WBC: 72.8 x10_2/uL
  ALP: 1332.6 IU/L
  ALT: 39 IU/L
  AST: 70.6 IU/L
  BUN: 11 mg/dL
  CRE: 0.2 mg/dL
  DBIL: 0.012 mg/dL
  GLC: 173.8 mg/dL
  IP: 9.7 mg/dL
  K: 3.9 meq/L
  Na: 142.2 meq/L
  PL: 143.2 mg/dL
  RALB: 2.6 g/dL
  TBIL: 0.062 mg/dL
  TC: 80.4 mg/dL
  TG: 48.8 mg/dL
  TP: 5.5 g/dL
  gamma-GTP: 0.8 IU/L
9 h
  TERMINAL_BW: 206.6 g
  APTT: 19.4 s
  Bas: 0%
  Eos: 0.8%
  Fbg: 294.4 mg/dL
  Hb: 13 g/dL
  Ht: 39%
  Lym: 79.6%
  MCH: 20.7 pg
  MCHC: 33.2%
  MCV: 62.4 fL
  Mono: 2.2%
  Neu: 17%
  PT: 15.3 s
  Plat: 108.3 x10_4/uL
  RBC: 625.6 x10_4/ul
  Ret: 7.8%
  WBC: 70.5 x10_2/uL
  ALP: 1206 IU/L
  ALT: 40.8 IU/L
  AST: 68.2 IU/L
  BUN: 9 mg/dL
  CRE: 0.2 mg/dL
  DBIL: 0.01 mg/dL
  GLC: 182.8 mg/dL
  IP: 10.2 mg/dL
  K: 4 meq/L
  Na: 144.2 meq/L
  PL: 142 mg/dL
  RALB: 2.6 g/dL
  TBIL: 0.066 mg/dL
  TC: 79 mg/dL
  TG: 35.8 mg/dL
  TP: 5.6 g/dL
  gamma-GTP: 0.8 IU/L
24 h
  TERMINAL_BW: 222.4 g
  APTT: 16.2 s
  Bas: 0%
  Eos: 1%
  Fbg: 270.8 mg/dL
  Hb: 13.1 g/dL
  Ht: 39.3%
  Lym: 74.2%
  MCH: 21.3 pg
  MCHC: 33.3%
  MCV: 64.1 fL
  Mono: 3.2%
  Neu: 20.6%
  PT: 15.9 s
  Plat: 116.4 x10_4/uL
  RBC: 613.6 x10_4/ul
  Ret: 7.6%
  WBC: 104.1 x10_2/uL
  ALP: 1714.2 IU/L
  ALT: 47.4 IU/L
  AST: 73.4 IU/L
  BUN: 15.4 mg/dL
  CRE: 0.2 mg/dL
  DBIL: 0.014 mg/dL
  GLC: 182.4 mg/dL
  IP: 8.4 mg/dL
  K: 4.2 meq/L
  Na: 141.6 meq/L
  PL: 156 mg/dL
  RALB: 2.6 g/dL
  TBIL: 0.052 mg/dL
  TC: 81.6 mg/dL
  TG: 72.8 mg/dL
  TP: 5.7 g/dL
  gamma-GTP: 0.8 IU/L

Source: ChEMBL document CHEMBL3885861, “Open TG-GATES”
